Experimental data reported in EP4202440A1, “PROTEOMICS-BASED STRATIFICATION OF ACUTE MYELOID LEUKAEMIA” (Max-Planck-Gesellschaft zur Förderung der Wissenschaften …, priority 2021, dated 2023).

Experiments:
[1] = test system: AML cell lines; assay: Cell viability assay (MTT dye reduction), Mito-high versus Mito-low AML cell lines; assay type: cell-based, Human; settings: 96 h incubation, Mito AML cell lines (n=9) vs non-Mito AML cell lines (n=10), Wilcoxon rank sum test, Figure 6D
From the text: Human AML cell lines including THP-1 (DSMZ no. ACC16; […]), OCI-AML2 (DSMZ No. ACC 99; FAB M4), OCI-AML3 (DSMZ No. ACC 582; FAB M4), Molm13 (DSMZ No. ACC 554; FAB […]), PL-21 (DSMZ No. ACC 536; FAB M3), HL-60 (DSMZ No. ACC 3; FAB M2), MV4-11 (DSMZ No. ACC 102; FAB M5), SIG-M5 (DSMZ No. ACC 468; FAB […]), ML2 (DSMZ No. ACC 15; FAB M4), NB4 (DSMZ No. ACC 207; FAB M3), KG1 (DSMZ No. ACC 14; FAB not indicated), KG-1a (DSMZ No. ACC 421; FAB not indicated), U-937 (DSMZ No. ACC 5, FAB not indicated), Kasumi-1 (DSMZ No. ACC 220, FAB M2), EOL-1 (DSMZ No. ACC 386, FAB not indicated), OCI-AML5 (DSMZ No. ACC 247, FAB M4), UT-7 (DSMZ No. ACC 137, FAB M7), SET-2 (DSMZ No. ACC 608, FAB no indicated), MonoMac6 (DSMZ No. ACC 124; FAB M5) and HEL (DSMZ No. ACC 11; FAB M6) were obtained from DSMZ (Deutsche Sammlung von Mikroorganismen und Zellkulturen GmbH). THP-1, OCI-AML2, OCI-AML3, Molm13, PL-21, HL-60, MV4-11, SIG-M5, ML2, NB4, KG1, KG-1a, U-937, EOL-1, SET-2, MonoMac6 and HEL were cultured in RPMI 1640 (ThermoFisher, Cat. No. 11875093), supplemented with 20% FBS, 4 mM L-glutamine, 100 IU/ml penicillin and […] streptomycin. Kasumi-1 and OCI-AML5 were cultured in Advanced RPMI (ThermoFisher, Cat. No. 12633012) supplemented with 5% FBS, 4 mM L-glutamine, 100 IU/ml penicillin and […] streptomycin. […] IC50 values were determined using the R package "drc" v3.0-1 (Ritz et al., 2015). […]

[2] = test system: AML cell lines; assay: Seahorse analysis: complex I dependency of respiration after rotenone, cell lines
[3] = test system: primary patient samples; assay: Seahorse analysis: complex I dependency of respiration after rotenone, primary patient samples

SMILES	half-maximum inhibitory concentration (IC50): in vitro sensitivity of Mito-high and -low cell lines [1]	Complex I dependency (percentage of basal oxygen consumption rate after inhibition with rotenone) [2]	Complex I dependency (percentage of basal oxygen consumption rate after inhibition with rotenone) [3]
FC(F)(F)c1ccc(/C=C/c2nc(COc3ccc(CCCCn4ccnn4)cc3)co2)cc1 [mubritinib, Mubritinib]	significant hypersensitivity	–	–
C=C(C)[C@H]1Cc2c(ccc3c2O[C@@H]2COc4cc(OC)c(OC)cc4[C@@H]2C3=O)O1 [rotenone, Rotenone]	–	significantly stronger Complex I dependency	significantly stronger Complex I dependency
